The values that follow come from patent US8309577B2, “Quinuclidine compounds as α-7 nicotinic acetylcholine receptor ligands” (Bristol-Myers Squibb Company, priority 2008, dated 2012).

This test has as its target T1, α-7 nicotinic acetylcholine receptor channel expressed in HEK 293 cells (Rattus norvegicus, UniProt Q05941).
T1 construct: expressed in transfected cells
As to the kind of experiment: Ca2+-sensitive fluorescence-based FLIPR assay, α7 nicotinic ACh receptor channel function (agonist). The format is cell-based. To be noted: for EC50: Table 1, HEK 293 cells, agonist Ca2+ flux. As to the method:
I) α7 Nicotinic Acetycholine Receptor Binding. Membranes were prepared for binding using HEK293 cells stably expressing the rat α7 nicotinic acetycholine receptor (rat α7 nAChR). Cells were homogenized at 4° C. in hypotonic lysis buffer consisting of 10 mM Tris (pH 7.4), 5 mM EDTA and protease inhibitors and centrifuged at 32000×g for 20 minutes. The pellet was washed once in membrane wash buffer consisting of 50 mM Tris (pH 7.4), 1 mM EDTA and protease inhibitors and centrifuged at 32000×g for 20 minutes. This pellet was then resuspended in assay buffer consisting 50 mM KH2PO4 (pH 7.4 at 25° C.), 1 mM EDTA, 0.005% Triton-X 100 and 0.1% (v/v) Sigma Protease Inhibitor Cocktail. Aliquots were then frozen in dry ice/ethanol and kept at −80° C. until the day of the assay. II) A Ca^2+-Sensitive, Fluorescence-Based Assay α-7 for Nicotinic Acetylcholine Receptor Channel Function In Mammalian Cells (“FLIPR”). Summary: Lead compounds are evaluated for agonist activity at […], α3β4, […], and α1β1δ1ε sub-types of nicotinic ACh receptor ion channels expressed in mammalian HEK 293 cells. Agonist potency and efficacy values are determined from kinetic fluorescence Ca^2+ influx measurements made using a 384 well FLIPR (Fluorescence Image Plate Reader). […] In this assay, channel expressing HEK cell lines seeded in 384 well assay plates are loaded with a membrane permeant fluorescent Ca^2+ indicator dye, whose 510 nm green emission signal increases in response to elevation of intracellular Ca^2+ concentration. The basal fluorescence from the cells is monitored in real time, followed by the acute addition of test compounds.
Materials and Methods: Reagents: The acetomethoxy (AM) ester of the Ca^2+ indicator dye Fluo-4 was obtained from InVitrogen, (Carlsbad, Calif.). Acetylcholine and all buffer constituents were purchased from Sigma Chemical Company, St. Louis, Mo. G418 and Minimal Essential Medium were purchased from InVitrogen Life Technologies, Carlsbad, Calif. Fetal bovine serum was purchased from (InVitrogen, Carlsbad, Calif.).
Cell Culture: HEK-293 cells were grown in Minimal Essential Medium containing 10% (v/v) fetal bovine serum at 37° C. in a 5% CO2 incubator. HEK-293 cells stably expressing the ion channels were grown in the same medium with the addition of 500 μg/ml G418.
Ca^2+ flux assays of Ca^2+ channels expressed in HEK-293 cells: HEK-293 cells expressing the ion channels of interest were plated in 384 well, black-walled, clear-bottomed, poly-D-lysine coated plates at a density of ˜20,000 cells/well in 20 μl of Minimal Essential Medium containing 10% (v/v) fetal bovine serum and incubated for 2 days at 29° C. in a 5% CO2 incubator. Prior to assay, cells were loaded with the Fluo-4 AM ester. […] Dye loading was allowed to proceed for 90 minutes at room temperature at which time the dye loading solution was removed and replaced with 40 μl/well of Hanks buffer. Cells loaded with dye were loaded onto a FLIPR384 (Molecular Devices, Sunnyvale, Calif.). Fluo-4 dye was excited using the 488 nm line of an argon laser. Emission was filtered using a 540+/−30 nm bandpass filter. For evaluation of the effects of test compounds using the Ca^2+ flux assay, compounds to be tested were provided in assay ready plates. For nicotinic receptor ion channel expressing cells, the assay was initiated by the addition of 20 μl/well of Hanks buffer containing test compounds. For all assays, data were collected at 1 Hz for 10 seconds (baseline), at which time the compound containing stimulus buffers are added, and further measurements collected at 0.33 Hz for 3 min.
Data Analysis: The statistical robustness of the nicotinic receptor Ca^2+ flux assays is determined from blanks and totals wells. […] The raw fluorescence units data files generated on the FLIPR plate reader are automatically exported and processed by in-house data analysis tools.

[1] abbreviates: FLIPR α7 activity rating (EC50, nM).

pEC50: −log10 of the molar value. Like-named read-outs stand apart in the source and are kept apart here.

T1 sequence (Q05941 23-502): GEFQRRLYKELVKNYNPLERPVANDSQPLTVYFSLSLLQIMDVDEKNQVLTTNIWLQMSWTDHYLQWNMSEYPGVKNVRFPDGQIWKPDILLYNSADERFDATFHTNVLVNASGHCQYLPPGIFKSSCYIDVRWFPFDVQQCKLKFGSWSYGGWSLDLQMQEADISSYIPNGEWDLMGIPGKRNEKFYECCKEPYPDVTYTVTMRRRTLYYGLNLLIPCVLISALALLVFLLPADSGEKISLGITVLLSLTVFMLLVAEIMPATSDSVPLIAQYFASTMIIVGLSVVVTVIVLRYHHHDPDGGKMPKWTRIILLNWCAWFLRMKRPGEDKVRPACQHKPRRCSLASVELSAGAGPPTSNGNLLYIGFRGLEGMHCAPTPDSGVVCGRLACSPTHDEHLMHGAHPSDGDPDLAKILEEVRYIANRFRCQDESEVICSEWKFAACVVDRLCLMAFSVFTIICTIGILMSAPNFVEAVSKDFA

As for `CC(=O)Nc1ccc2nc(NC3=NC[C@@]4(CN5CCC4CC5)O3)sc2c1` [Example 21, (R)—N-(2-(4H-1′-Azaspiro[oxazole-5,3′-bicyclo[2.2.2]octane]-2-ylamino)benzo[d]thiazol-6-yl)acetamide], the EC50 (in general, the midpoint of the concentration-response curve) under setting [1] is under 100 nM.
Compound `COc1ccc2nc(NC3=NC[C@@]4(CN5CCC4CC5)O3)nn2c1` [Example 24, (R)—N-(6-Methoxy-[1,2,4]-triazolo[1,5-a]pyridin-2-yl)-4H-1′-azaspiro[oxazole-5,3′-bicyclo[2.2.2]octan]-2-amine] displayed an EC50 under setting [1] of under 100 nM.
The compound `FC(F)(F)c1cnc(NC2=NC[C@@]3(CN4CCC3CC4)O2)cn1` [Example 25, (R)—N-(5-(Trifluoromethyl)pyrazin-2-yl)-4H-1′-azaspiro[oxazole-5,3′-bicyclo[2.2.2]octan]-2-amine] yielded a 50% effective concentration (EC50) (FLIPR α7 (EC50, nM)) of 510 nM and a 50% effective concentration (EC50) under setting [1] of 100 to 1000 nM.
For `Fc1ccc2c(NC3=NC[C@@]4(CN5CCC4CC5)O3)n[nH]c2c1` [Example 26, (R)—N-(6-Fluoro-1H-indazol-3-yl)-4H-1′-azaspiro[oxazole-5,3′-bicyclo[2.2.2]octan]-2-amine], the EC50 under setting [1] is under 100 nM.
Consider `c1ccc(-c2cncc(NC3=NC[C@@]4(CN5CCC4CC5)O3)c2)cc1` [Example 28, (R)—N-(5-Phenylpyridin-3-yl)-4H-1′-azaspiro[oxazole-5,3′-bicyclo[2.2.2]octan]-2-amine], for which the negative-log EC50 (pEC50) (commonly the negative decadic logarithm of the EC50, by convention in mol/L) was 5.40. Besides, the EC50 under setting [1] is 1000 to 100000 nM.
Turning to `c1ccc(-c2cc(NC3=NC[C@@]4(CN5CCC4CC5)O3)ccn2)cc1` [Example 29, (R)—N-(2-Phenylpyridin-4-yl)-4H-1′-azaspiro[oxazole-5,3′-bicyclo[2.2.2]octan]-2-amine], under setting [1], the EC50 was 100 to 1000 nM.
For `c1ccc(-c2cccc(NC3=NC[C@@]4(CN5CCC4CC5)O3)n2)cc1` [Example 30, (R)—N-(6-Phenylpyridin-2-yl)-4H-1′-azaspiro[oxazole-5,3′-bicyclo[2.2.2]octan]-2-amine], under setting [1], the EC50 was in the range of 100 to 1000 nM.
Still for that read-out and setting: the value for `Cn1nc(NC2=NC[C@@]3(CN4CCC3CC4)O2)c2ccc(OC(F)F)cc21` [Example 31, (R)—N-(6-(Difluoromethoxy)-1-methyl-1H-indazol-3-yl)-4H-1′-azaspiro[oxazole-5,3′-bicyclo[2.2.2]octan]-2-amine] was 100 to 1000 nM; that for `FC(F)Oc1ccc2nc(NC3=NC[C@@]4(CN5CCC4CC5)O3)sc2n1` [Example 32, (R)—N-(5-(Difluoromethoxy)thiazolo[5,4-b]pyridin-2-yl)-4H-1′-azaspiro[oxazole-5,3′-bicyclo[2.2.2]octan]-2-amine] was 100 to 1000 nM; that for `c1nc(N2CCCC2)cnc1NC1=NC[C@@]2(CN3CCC2CC3)O1` [Example 34, (R)—N-(5-(Pyrrolidin-1-yl)pyrazin-2-yl)-4H-1′-azaspiro[oxazole-5,3′-bicyclo[2.2.2]octan]-2-amine] was 1000 to 100000 nM.
On to `O=C1CCCN1c1cnc(NC2=NC[C@@]3(CN4CCC3CC4)O2)cn1` [Example 35, (R)-1-(5-(4H-1′-Azaspiro[oxazole-5,3′-bicyclo[2.2.2]octane]-2-ylamino)pyrazin-2-yl)pyrrolidin-2-one], for which the negative logarithm of the EC50 (pEC50) is 5.39. This compound also came in with an EC50 under setting [1] of 1000 to 100000 nM.
The compound `c1cncc(-c2cnc(NC3=NC[C@@]4(CN5CCC4CC5)O3)cn2)c1` [Example 36, (R)—N-(5-(Pyridin-3-yl)pyrazin-2-yl)-4H-1′-azaspiro[oxazole-5,3′-bicyclo[2.2.2]octan]-2-amine] showed an EC50 under setting [1] of 100 to 1000 nM.
The compound `COc1ccc(-c2cnc(NC3=NC[C@@]4(CN5CCC4CC5)O3)cn2)cn1` [Example 37, (R)—N-(5-(6-Methoxypyridin-3-yl)pyrazin-2-yl)-4H-1′-azaspiro[oxazole-5,3′-bicyclo[2.2.2]octan]-2-amine] came in with an EC50 under setting [1] of 1000 to 100000 nM.
Turning to `COc1ccc2nc(NC3=NC[C@@]4(CN5CCC4CC5)O3)cnc2c1` [Example 38, (R)—N-(6-Methoxyquinoxalin-2-yl)-4H-1′-azaspiro[oxazole-5,3′-bicyclo[2.2.2]octan]-2-amine], the EC50 under setting [1] is under 100 nM.
In the case of `FC(F)Oc1cnc(NC2=NC[C@@]3(CN4CCC3CC4)O2)nc1` [Example 39, (R)—N-(5-(Difluoromethoxy)pyrimidin-2-yl)-4H-1′-azaspiro[oxazole-5,3′-bicyclo[2.2.2]octan]-2-amine], the EC50 under setting [1] is under 100 nM.
Under setting [1], `Cc1cnc(NC2=NC[C@@]3(CN4CCC3CC4)O2)nc1C` [Example 40, (R)—N-(4,5-Dimethylpyrimidin-2-yl)-4H-1′-azaspiro[oxazole-5,3′-bicyclo[2.2.2]octan]-2-amine] returned an EC50 of under 100 nM.
With `COc1ccc(-c2cc(NC3=NC[C@@]4(CN5CCC4CC5)O3)ncn2)cc1` [Example 42, (R)—N-(6-(4-Methoxyphenyl)pyrimidin-4-yl)-4H-1′-azaspiro[oxazole-5,3′-bicyclo[2.2.2]octan]-2-amine], the EC50 under setting [1] is under 100 nM.
Same read-out and setting: the figure for `COc1ccc(-c2cc(NC3=NC[C@@]4(CN5CCC4CC5)O3)ncn2)cn1` [Example 43, (R)—N-(6-(6-Methoxypyridin-3-yl)pyrimidin-4-yl)-4H-1′-azaspiro[oxazole-5,3′-bicyclo[2.2.2]octan]-2-amine] is under 100 nM; for `c1ccc2cc(-c3cc(NC4=NC[C@@]5(CN6CCC5CC6)O4)ncn3)ccc2c1` [Example 44, (R)—N-(6-(Naphthalen-2-yl)pyrimidin-4-yl)-4H-1′-azaspiro[oxazole-5,3′-bicyclo[2.2.2]octan]-2-amine] it is 100 to 1000 nM.
`c1ccc(-c2csc(NC3=NCC4(CN5CCC4CC5)O3)n2)cc1` (stereo not drawn) [Example 45] displayed an EC50 under setting [1] of 100 to 1000 nM.
`c1cc2nc(NC3=NCC4(CN5CCC4CC5)O3)sc2cc1N1CCOCC1` (stereo not drawn) [Example 46] had a pEC50 of 5.70. The EC50 under setting [1] was 1000 to 100000 nM.
In the case of `Fc1ccc2sc(NC3=NCC4(CN5CCC4CC5)O3)nc2c1` (stereo not drawn) [Example 47], under setting [1], the EC50 was under 100 nM.
In the case of `FC(F)(F)c1ccc2nc(NC3=NCC4(CN5CCC4CC5)O3)sc2c1` (stereo not drawn) [Example 48], the EC50 by setting is: (FLIPR α7 (EC50, nM)) 790 nM; under setting [1], 100 to 1000 nM.
Turning to `FC(F)(F)Oc1ccc2nc(NC3=NCC4(CN5CCC4CC5)O3)sc2c1` (stereo not drawn) [Example 49], the pEC50 was 5.48. The same compound yielded a concentration giving a half-maximal response (EC50) under setting [1] of 1000 to 100000 nM.
Compound `Fc1cccc2sc(NC3=NCC4(CN5CCC4CC5)O3)nc12` (stereo not drawn) [Example 50] had an EC50 under setting [1] of under 100 nM.
As for `Fc1cc2nc(NC3=NCC4(CN5CCC4CC5)O3)sc2cc1F` (stereo not drawn) [Example 52], the EC50 was 325 nM (FLIPR α7 (EC50, nM)) and 100 to 1000 nM under setting [1].
Turning to `COc1ccc2sc(NC3=NCC4(CN5CCC4CC5)O3)nc2c1` (stereo not drawn) [Example 53], the EC50 under setting [1] is 1000 to 100000 nM.
In the case of `COc1cccc2sc(NC3=NCC4(CN5CCC4CC5)O3)nc12` (stereo not drawn) [Example 54], the EC50 under setting [1] was 1000 to 100000 nM.
The same measure, in the same setting: the figure for `COc1cc2nc(NC3=NCC4(CN5CCC4CC5)O3)sc2cc1OC` (stereo not drawn) [Example 55] is 1000 to 100000 nM; for `c1ccc(-c2nnc(NC3=NCC4(CN5CCC4CC5)O3)s2)cc1` (stereo not drawn) [Example 56] it is 1000 to 100000 nM.
For the compound `CN(C)C(=O)c1ccc2nc(NC3=NCC4(CN5CCC4CC5)O3)sc2c1` (stereo not drawn) [Example 57], the negative logarithm of the EC50 (pEC50) was 5.41. The compound further displayed an EC50 under setting [1] of 1000 to 100000 nM.
`O=C(c1ccc2nc(NC3=NCC4(CN5CCC4CC5)O3)sc2c1)N1CCCCC1` (stereo not drawn) [Example 58] showed an EC50 under setting [1] of 1000 to 100000 nM.
The compound `Fc1ccc(-c2nnc(NC3=NCC4(CN5CCC4CC5)O3)s2)cc1` (stereo not drawn) [Example 59] had a pEC50 of 5.37. The EC50 under setting [1] is 1000 to 100000 nM.
`c1coc(-c2nnc(NC3=NCC4(CN5CCC4CC5)O3)s2)c1` (stereo not drawn) [Example 60] had a pEC50 of 5.59. The EC50 under setting [1] lay within 1000 to 100000 nM.
`Brc1ccc2nc(NC3=NCC4(CN5CCC4CC5)O3)sc2c1` (stereo not drawn) [Example 61] gave an EC50 under setting [1] of 100 to 1000 nM.
